From patent US9695155B2, “Herbicidal substituted pyrimidinyloxy benzene compounds” (E. I. DU PONT DE NEMOURS AND COMPANY, priority 2013, dated 2017)

Legend:
bluegrass [1] = assay: Test D preemergence; assay type: in vivo, Poa annua; conditions: Poa annua, pre-emergence
Summary of the method: (§1)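 Visual rating vs untreated controls, 0 = no effect, 100 = complete control, taken 7–21 d after treatment. Pre: silt loam soil. Post: potting medium, plants 2–18 cm, 1–4 leaf. Formulation: non-phytotoxic solvent mix + surfactant.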

canarygrass = assay: Test D preemergence; assay type: in vivo, Phalaris minor; conditions: Phalaris minor, pre-emergence
Summary of the method: as §1

deadnettle = assay: Test D preemergence; assay type: in vivo, Lamium amplexicaule; conditions: Lamium amplexicaule, pre-emergence
Summary of the method: as §1

oilseed rape = assay: Test D preemergence; assay type: in vivo, Brassica napus; conditions: Brassica napus, pre-emergence
Summary of the method: as §1

pigweed = assay: Test D preemergence; assay type: in vivo, Amaranthus retroflexus; conditions: Amaranthus retroflexus, pre-emergence
Summary of the method: as §1

speedwell = assay: Test D preemergence; assay type: in vivo, Veronica persica; conditions: Veronica persica, pre-emergence
Summary of the method: as §1

spring wheat = assay: Test D preemergence; assay type: in vivo, Triticum aestivum; conditions: Triticum aestivum, pre-emergence
Summary of the method: as §1

wild oat = assay: Test D preemergence; assay type: in vivo, Avena fatua; conditions: Avena fatua, pre-emergence
Summary of the method: as §1

bluegrass [2] = assay: Test D postemergence; assay type: in vivo, Poa annua; conditions: Poa annua, post-emergence, Postemergence, scale 0 to 100 (0 no effect, 100 complete control), read-out: Plant response rating, Bluegrass
Summary of the method: as §1

lambsquarters = assay: Test D postemergence; assay type: in vivo, Chenopodium album; conditions: Chenopodium album, post-emergence
Summary of the method: as §1

wild buckwheat = assay: Test D postemergence; assay type: in vivo, Polygonum convolvulus; conditions: Fallopia convolvulus, post-emergence, Postemergence, scale 0 to 100 (0 no effect, 100 complete control), read-out: Plant response rating, Buckwheat, Wild
Summary of the method: as §1

mustard, black = assay: Test F preemergence; assay type: in vivo, Brassica nigra; conditions: 21 days, scale 0 to 100
Summary of the method: (§2)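 Seeds are planted in a blend of loam and sand. Chemicals in a surfactant-containing non-phytotoxic solvent are applied before emergence. After 21 days under greenhouse conditions, plants are compared with controls and scored visually, 0–100.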

sowthistle = assay: Test F preemergence; assay type: in vivo, Sonchus oleraceous; conditions: 21 days, scale 0 to 100
From the text: Seeds of plant species selected from bermudagrass (Cynodon dactylon), surinam grass (Brachiaria decumbens), large (Lg) crabgrass (Digitaria sanguinalis), crabgrass, naked (naked crabgrass, Digitaria nuda), foxtail, green (green foxtail, Setaria viridis), johnsongrass (Sorghum halepense), kochia (Kochia scoparia), morningglory (pitted morningglory, Ipomoea lacunosa), nutsedge, purple (purple nutsedge, Cyperus rotundus), ragweed (common ragweed, Ambrosia elatior), mustard, black (black mustard, Brassica nigra), guineagrass (Panicum maximum), dallisgrass (Paspalum dilatatum), barnyardgrass (Echinochloa crus-galli), sandbur (southern sandbur, Cenchrus echinatus), sowthistle (common sowthistle, Sonchus oleraceous), Italian ryegrass (Lolium multiflorum), signalgrass (broadleaf signalgrass, Brachiaria platyphylla), dayflower (Virginia (VA) dayflower, Commelina virginica), bluegrass (annual bluegrass, Poa annua), quackgrass (Elytrigia repens), mallow (common mallow, Malva sylvestris), buckwheat, wild (wild buckwheat, Polygonum convolvulus), leafy spurge (Euphorbia esula), chickweed (common chickweed, Stellaria media), wild poinsettia (Euphorbia heterophylla), and pigweed (Amaranthus retroflexus) were planted into a blend of loam soil and sand and treated preemergence with test chemicals formulated in a non-phytotoxic solvent mixture which included a surfactant.
Treated plants and controls were maintained in a greenhouse for 21 days, after which time all species were compared to controls and visually evaluated. Plant response ratings, summarized in Table F, are based on a scale of 0 to 100 where 0 is no effect and 100 is complete control. A dash (-) response means no test result.

buckwheat, wild = assay: Test F preemergence; assay type: in vivo, Polygonum convolvulus; conditions: 21 days, scale 0 to 100
Summary of the method: as §2

chickweed = assay: Test F preemergence; assay type: in vivo, Stellaria media; conditions: 21 days, scale 0 to 100
Summary of the method: as §2

wild poinsettia = assay: Test F preemergence; assay type: in vivo, Euphorbia heterophylla; conditions: 21 days, scale 0 to 100
Summary of the method: as §2

## N#Cc1cccc(Oc2ncc(Cl)cn2)c1-n1cc(OCC(F)(F)F)cn1 [Compound 274, 3-[(5-chloro-2-pyrimidinyl)oxy]-2-[4-(2,2,2-trifluoroethoxy)-1H-pyrazol-1-yl]benzonitrile]
Bluegrass [1]; 16 g ai/ha, scale 0 (no effect) to 100 (complete control), read-out: Plant response rating, Bluegrass
  pest or weed control at 16 g/ha: 0%
Bluegrass [1]; 31 g ai/ha, scale 0-100, read-out: Plant response rating, Bluegrass
  pest or weed control at 31 g/ha: 5%
Bluegrass [1]; 62 g ai/ha, scale 0-100, read-out: Plant response rating, Bluegrass
  pest or weed control at 62 g/ha: 30%
Bluegrass [1]; 125 g ai/ha, scale 0-100, read-out: Plant response rating, Bluegrass
  pest or weed control at 125 g/ha: 70%
canarygrass; 16 g ai/ha, scale 0 (no effect) to 100 (complete control), read-out: Plant response rating, Canarygrass
  pest or weed control at 16 g/ha: 20%
canarygrass; 31 g ai/ha, scale 0-100, read-out: Plant response rating, Canarygrass
  pest or weed control at 31 g/ha: 20%
canarygrass; 62 g ai/ha, scale 0-100, read-out: Plant response rating, Canarygrass
  pest or weed control at 62 g/ha: 60%
canarygrass; 125 g ai/ha, scale 0-100, read-out: Plant response rating, Canarygrass
  pest or weed control at 125 g/ha: 85%
deadnettle; 16 g ai/ha, scale 0 (no effect) to 100 (complete control), read-out: Plant response rating, Deadnettle
  pest or weed control at 16 g/ha: 55%
deadnettle; 31 g ai/ha, scale 0-100, read-out: Plant response rating, Deadnettle
  pest or weed control at 31 g/ha: 100%
deadnettle; 62 g ai/ha, scale 0-100, read-out: Plant response rating, Deadnettle
  pest or weed control at 62 g/ha: 100%
deadnettle; 125 g ai/ha, scale 0-100, read-out: Plant response rating, Deadnettle
  pest or weed control at 125 g/ha: 100%
Oilseed rape; 16 g ai/ha, scale 0 (no effect) to 100 (complete control), read-out: Plant response rating, Oilseed Rape
  plant injury at 16 g/ha: 35%
Oilseed rape; 31 g ai/ha, scale 0-100, read-out: Plant response rating, Oilseed Rape
  plant injury at 31 g/ha: 30%
Oilseed rape; 62 g ai/ha, scale 0-100, read-out: Plant response rating, Oilseed Rape
  plant injury at 62 g/ha: 65%
Oilseed rape; 125 g ai/ha, scale 0-100, read-out: Plant response rating, Oilseed Rape
  plant injury at 125 g/ha: 75%
pigweed; 16 g ai/ha, scale 0 (no effect) to 100 (complete control), read-out: Plant response rating, Pigweed
  pest or weed control at 16 g/ha: 70%
pigweed; 31 g ai/ha, scale 0 (no effect) to 100 (complete control), read-out: Plant response rating, Pigweed
  pest or weed control at 31 g/ha: 100%
pigweed; 125 g ai/ha, scale 0-100, read-out: Plant response rating, Pigweed
  pest or weed control at 125 g/ha: 100%
speedwell; 16 g ai/ha, scale 0 (no effect) to 100 (complete control), read-out: Plant response rating, Speedwell
  pest or weed control at 16 g/ha: 100%
speedwell; 31 g ai/ha, scale 0 (no effect) to 100 (complete control), read-out: Plant response rating, Speedwell
  pest or weed control at 31 g/ha: 100%
speedwell; 125 g ai/ha, scale 0-100, read-out: Plant response rating, Speedwell
  pest or weed control at 125 g/ha: 100%
Spring wheat; 16 g ai/ha, scale 0 (no effect) to 100 (complete control), read-out: Plant response rating, Wheat, Spring
  plant injury at 16 g/ha: 0%
Spring wheat; 31 g ai/ha, scale 0 (no effect) to 100 (complete control), read-out: Plant response rating, Wheat, Spring
  plant injury at 31 g/ha: 0%
Spring wheat; 125 g ai/ha, scale 0-100, read-out: Plant response rating, Wheat, Spring
  plant injury at 125 g/ha: 55%
Wild oat; 16 g ai/ha, scale 0 (no effect) to 100 (complete control), read-out: Plant response rating, Oat, Wild
  pest or weed control at 16 g/ha: 0%
Wild oat; 31 g ai/ha, scale 0-100, read-out: Plant response rating, Oat, Wild
  pest or weed control at 31 g/ha: 0%
Wild oat; 62 g ai/ha, scale 0-100, read-out: Plant response rating, Oat, Wild
  pest or weed control at 62 g/ha: 15%
Wild oat; 125 g ai/ha, scale 0-100, read-out: Plant response rating, Oat, Wild
  pest or weed control at 125 g/ha: 25%
Bluegrass [2]; 16 g ai/ha
  pest or weed control at 16 g/ha: 20%
Bluegrass [2]; 31 g ai/ha
  pest or weed control at 31 g/ha: 25%
Bluegrass [2]; 62 g ai/ha
  pest or weed control at 62 g/ha: 30%
Bluegrass [2]; 125 g ai/ha
  pest or weed control at 125 g/ha: 30%
lambsquarters; 16 g ai/ha, scale 0-100, read-out: Plant response rating, Lambsquarters
  pest or weed control at 16 g/ha: 75%
lambsquarters; 31 g ai/ha, scale 0 to 100 (0 no effect, 100 complete control), read-out: Plant response rating, Lambsquarters
  pest or weed control at 31 g/ha: 80%
lambsquarters; 62 g ai/ha, scale 0 to 100 (0 no effect, 100 complete control), read-out: Plant response rating, Lambsquarters
  pest or weed control at 62 g/ha: 95%
lambsquarters; 125 g ai/ha, scale 0 to 100 (0 no effect, 100 complete control), read-out: Plant response rating, Lambsquarters
  pest or weed control at 125 g/ha: 95%
Wild buckwheat; 16 g ai/ha
  pest or weed control at 16 g/ha: 65%
Wild buckwheat; 31 g ai/ha
  pest or weed control at 31 g/ha: 85%
Wild buckwheat; 62 g ai/ha
  pest or weed control at 62 g/ha: 100%
Wild buckwheat; 125 g ai/ha
  pest or weed control at 125 g/ha: 100%
mustard, black; 16 g ai/ha
  Plant response rating, Mustard, Black: 98
mustard, black; 31 g ai/ha
  Plant response rating, Mustard, Black: 100
mustard, black; 62 g ai/ha
  Plant response rating, Mustard, Black: 100
mustard, black; 125 g ai/ha
  Plant response rating, Mustard, Black: 100
mustard, black; 250 g ai/ha
  Plant response rating, Mustard, Black: 100
sowthistle; 16 g ai/ha
  Plant response rating, Sowthistle: 100
sowthistle; 31 g ai/ha
  Plant response rating, Sowthistle: 100
sowthistle; 62 g ai/ha
  Plant response rating, Sowthistle: 100
sowthistle; 125 g ai/ha
  Plant response rating, Sowthistle: 100
sowthistle; 250 g ai/ha
  Plant response rating, Sowthistle: 100
buckwheat, wild; 16 g ai/ha
  Plant response rating, Buckwheat, Wild: 100
buckwheat, wild; 31 g ai/ha
  Plant response rating, Buckwheat, Wild: 100
buckwheat, wild; 62 g ai/ha
  Plant response rating, Buckwheat, Wild: 100
buckwheat, wild; 125 g ai/ha
  Plant response rating, Buckwheat, Wild: 100
buckwheat, wild; 250 g ai/ha
  Plant response rating, Buckwheat, Wild: 100
chickweed; 16 g ai/ha
  Plant response rating, Chickweed: 98
chickweed; 31 g ai/ha
  Plant response rating, Chickweed: 98
chickweed; 62 g ai/ha
  Plant response rating, Chickweed: 100
chickweed; 125 g ai/ha
  Plant response rating, Chickweed: 100
chickweed; 250 g ai/ha
  Plant response rating, Chickweed: 100
Wild poinsettia; 16 g ai/ha
  Plant response rating, Poinsettia, Wild: 5
Wild poinsettia; 31 g ai/ha
  Plant response rating, Poinsettia, Wild: 10
Wild poinsettia; 62 g ai/ha
  Plant response rating, Poinsettia, Wild: 70
Wild poinsettia; 125 g ai/ha
  Plant response rating, Poinsettia, Wild: 95
Wild poinsettia; 250 g ai/ha
  Plant response rating, Poinsettia, Wild: 100
